In patent US4024277A, “Phosphoro-aminosulfenyl derivatives of benzofuran carbamates” (priority 1975, dated 1977):

Assays:
pea aphid [1] = test: Seven-day residual insecticidal activity, pea aphid; assay type: in vivo, Acyrthosiphon pisum (Harris); details: Acyrthosiphon pisum, 48-hour exposure, read-out: % Kill, Pea Aphid
From the text: (§1) b. Seven-Day Residual Insecticidal Activity
(§2) In this test, a candidate insecticide, in solution, is applied to uninfested plants or containers by dipping or spraying. A seven-day holding period is necessary before infestation. A 48-hour exposure period is observed before evaluation of the tests. The insect species used in this type of test are the same as those listed under initial activity.

plum curculio = test: Initial insecticidal activity, plum curculio; assay type: in vivo, Conotrachelus nenuphar (Herbst); details: Conotrachelus nenuphar, 48-hour exposure, read-out: % Kill, Plum Curculio
From the text: (§3) a. Initial Insecticidal Activity
(§4) In this test, a candidate insecticide, in solution, is applied to either infested or uninfested plants or containers by spraying or dipping. (The preferred test procedure varies with insect species. The dipping method is better than the spraying method, and vice versa, for certain species of insects. Also some species are better adapted to the test by infesting after the chemical treatment rather than before.) Once the tests have been established, a 48-hour exposure period is observed before reading the tests. Insect species included in these tests are Mexican bean beetle (Epilachna varivestis Mulsant), pea aphid [Acyrthosiphon pisum (Harris)], southern armyworm [Spodoptera eridania (Cramer)], twospotted spider mite (Tetranychus urticae Koch), large milkweed bug [Oncopeltus fasciatus (Dallas)], plum curculio [Conotrachelus nenuphar (Herbst)], confused flour beetle (Tribolium confusum Jacquelin duVal) and granary weevil [Sitophilus granarius (Linnaeus)]. Test results are set forth in Table I. A control sample, comprising the solution without the candidate insecticide, is also included.

pea aphid [2] = test: Systemic insecticidal activity (soil/water), pea aphid; assay type: in vivo, Acyrthosiphon pisum (Harris); details: Acyrthosiphon pisum, 48-hour exposure, read-out: % Kill, Pea Aphid
Procedure: (§5) c. Systemic Insecticidal Acitivity (Soil/Water)
(§6) In this test, a candidate insecticide, in solution, is added to the soil of either uninfested pinto bean seedlings (Phaseolus vulgaris) or uninfested broad bean seedlings (Vicia faba var. Windsor). The plant species used depend on the insect species in the test. Usually, a 72-hour translocation period before infestation is required, followed by a 48-hour exposure period, before evaluation of the tests. The insect species used in the systemic tests are Mexican bean beetle, southern armyworm, pea aphid, and twospotted spider mite.

[3] = Mammalian toxicity, 14-day LD50 in rats; details: rat, in vivo, Wistar derived albino rats, method of Miller and Tainter
From the text: The compounds of this invention are characterized by advantageous mammalian toxicity values when compared with values for related compounds. This is shown by comparative values obtained with Wistar derived albino rats in 14-day tests. The animals were fed, housed and watered in accordance with standard laboratory procedures. The 14-day LD50 determination was estimated in accord with the method of Miller and Tainter (Experimental Biology and Medicine, 57, pp. 261-264, 1944).

Mexican bean beetle = test: Systemic insecticidal activity (soil/water), Mexican bean beetle; assay type: in vivo, Epilachna varivestis Mulsant; details: Epilachna varivestis, 48-hour exposure, read-out: % Kill, Mexican Bean Beetle
Procedure: as §5, §6

southern armyworm = test: Systemic insecticidal activity (soil/water), southern armyworm; assay type: in vivo, Spodoptera eridania (Cramer); details: Spodoptera eridania, 48-hour exposure, read-out: % Kill, Southern Armyworm
Procedure: as §5, §6

large milkweed bug [4] = test: Seven-day residual insecticidal activity, milkweed bug; assay type: in vivo, Oncopeltus fasciatus (Dallas); details: Oncopeltus fasciatus, 48-hour exposure, read-out: % Kill, Milkweed Bug
From the text: as §1, §2

pea aphid [5] = test: Initial insecticidal activity, pea aphid; assay type: in vivo, Acyrthosiphon pisum (Harris); details: Acyrthosiphon pisum, 48-hour exposure, read-out: % Kill, Pea Aphid
From the text: as §3, §4

granary weevil = test: Initial insecticidal activity, granary weevil; assay type: in vivo, Sitophilus granarius (Linnaeus); details: Sitophilus granarius, 48-hour exposure, read-out: % Kill, Granary Weevil
From the text: as §3, §4

large milkweed bug [6] = test: Initial insecticidal activity, milkweed bug; assay type: in vivo, Oncopeltus fasciatus (Dallas); details: Oncopeltus fasciatus, 48-hour exposure, read-out: % Kill, Milkweed Bug
From the text: as §3, §4

[7] = tested on: female house flies (resistant); test: Level II topical test, house flies; assay type: in vivo, Musca domestica Linnaeus; details: HF (female, resistant), one microgram topically per insect; for % Knockdown: 10 minutes; for mortality at 0.001 mg: Musca domestica, topical, read-out: % Kill
Procedure: e. Insecticidal Activity Against House Flies and German Cockroaches
In a Level II test the compounds of this invention were tested for insecticidal activity against female house flies (resistant) and male German cockroaches. Ten insects were anesthetized with carbon dioxide and placed in a container for about 2 hours, during which time the insects recovered to normal activity. The container confining the insects is fitted with a plunger which is used to force the insects against a nylon mesh at one end of the container. One microliter of an acetone solution containing one microgram of the candidate insecticide was applied topically to each insect. The plunger was withdrawn and the insects were allowed to move freely about the container. Knockdown counts were recorded 10 minutes after treatment of house flies and 30 minutes after treatment of cockroaches.

In the case of `CCCOP(=O)(OCCC)N(C)SN(C)C(=O)Oc1cccc2c1OC(C)(C)C2` [2(d), 2,3-dihydro-2,2-dimethyl-7-benzofuranyl [(N-di-n-propoxyphosphinyl) (N-methyl)aminosulfenyl][methyl]carbamate], the mortality at 39 ppm (pea aphid [1]) is reported as 0%, the mortality at 156 ppm (pea aphid [1]) is reported as 0% and the mortality at 1250 ppm (pea aphid [1]) is reported as 56%. It also gave a mortality at 39 ppm (plum curculio) of 0%, a mortality at 156 ppm (plum curculio) of 20% and a mortality at 1250 ppm (plum curculio) of 100%. The mortality at 10 ppm (pea aphid [2]) was 0%, the mortality at 39 ppm (pea aphid [2]) was 11% and the mortality at 156 ppm (pea aphid [2]) was 80%. For the same compound, the LD50 at 336 h [3] was 152 mg/kg, the mortality at 10 ppm (Mexican bean beetle) was 20% and the mortality at 39 ppm (Mexican bean beetle) was 85%. The mortality at 156 ppm (Mexican bean beetle) was 100%, the mortality at 10 ppm (southern armyworm) was 0% and the mortality at 39 ppm (southern armyworm) was 94%. The mortality at 156 ppm (southern armyworm) was 100%, the mortality at 39 ppm (large milkweed bug [4]) was 56% and the mortality at 156 ppm (large milkweed bug [4]) was 100%. It also gave a mortality at 1250 ppm (large milkweed bug [4]) of 100%, a mortality at 39 ppm (pea aphid [5]) of 86% and a mortality at 156 ppm (pea aphid [5]) of 100%. It also gave a mortality at 1250 ppm (pea aphid [5]) of 100%, a mortality at 39 ppm (granary weevil) of 88% and a mortality at 156 ppm (granary weevil) of 100%. The mortality at 1250 ppm (granary weevil) was 100%, the mortality at 39 ppm (large milkweed bug [6]) was 100% and the mortality at 156 ppm (large milkweed bug [6]) was 100%. The mortality at 1250 ppm (large milkweed bug [6]) was 100%, the “% Knockdown” value [7] was 0% and the mortality at 0.001 mg [7] was 40%.

`CCCOP(=O)(OCCC)N(CCC)SN(C)C(=O)Oc1cccc2c1OC(C)(C)C2` [3(c)] showed a mortality at 39 ppm (pea aphid [1]) of 0%, a mortality at 156 ppm (pea aphid [1]) of 0% and a mortality at 1250 ppm (pea aphid [1]) of 73%. For the same compound, the mortality at 39 ppm (plum curculio) was 5%, the mortality at 156 ppm (plum curculio) was 5% and the mortality at 1250 ppm (plum curculio) was 77%. It also gave a mortality at 10 ppm (pea aphid [2]) of 0%, a mortality at 39 ppm (pea aphid [2]) of 0% and a mortality at 156 ppm (pea aphid [2]) of 79%. It also gave a mortality at 10 ppm (Mexican bean beetle) of 44%, a mortality at 39 ppm (Mexican bean beetle) of 44% and a mortality at 156 ppm (Mexican bean beetle) of 94%. For the same compound, the mortality at 10 ppm (southern armyworm) was 0%, the mortality at 39 ppm (southern armyworm) was 0% and the mortality at 156 ppm (southern armyworm) was 95%. It also gave a mortality at 39 ppm (large milkweed bug [4]) of 5%, a mortality at 156 ppm (large milkweed bug [4]) of 90% and a mortality at 1250 ppm (large milkweed bug [4]) of 100%. The mortality at 39 ppm (pea aphid [5]) was 31%, the mortality at 156 ppm (pea aphid [5]) was 100% and the mortality at 1250 ppm (pea aphid [5]) was 100%. It also gave a mortality at 39 ppm (granary weevil) of 70%, a mortality at 156 ppm (granary weevil) of 90% and a mortality at 1250 ppm (granary weevil) of 100%. It also gave a mortality at 39 ppm (large milkweed bug [6]) of 85%, a mortality at 156 ppm (large milkweed bug [6]) of 100% and a mortality at 1250 ppm (large milkweed bug [6]) of 100%. For the same compound, the “% Knockdown” value [7] was 0% and the mortality at 0.001 mg [7] was 40%.

`CCN(SN(C)C(=O)Oc1cccc2c1OC(C)(C)C2)P(=O)(OC)OC` [5(c), 2,3-dihydro-2,2-dimethyl-7-benzofuranyl [(N-dimethoxyphosphinyl) (N-ethyl)aminosulfenyl][methyl]carbamate] showed a mortality at 39 ppm (pea aphid [1]) of 0%, a mortality at 156 ppm (pea aphid [1]) of 0% and a mortality at 1250 ppm (pea aphid [1]) of 62%. The mortality at 39 ppm (plum curculio) was 50%, the mortality at 156 ppm (plum curculio) was 85% and the mortality at 1250 ppm (plum curculio) was 100%. It also gave a mortality at 39 ppm (pea aphid [2]) of 0%, a mortality at 156 ppm (pea aphid [2]) of 100% and a mortality at 39 ppm (Mexican bean beetle) of 100%. It also gave a mortality at 156 ppm (Mexican bean beetle) of 100%, a mortality at 39 ppm (southern armyworm) of 60% and a mortality at 156 ppm (southern armyworm) of 100%. The mortality at 39 ppm (large milkweed bug [4]) was 0%, the mortality at 156 ppm (large milkweed bug [4]) was 100% and the mortality at 1250 ppm (large milkweed bug [4]) was 100%. The mortality at 39 ppm (pea aphid [5]) was 0%, the mortality at 156 ppm (pea aphid [5]) was 100% and the mortality at 1250 ppm (pea aphid [5]) was 100%. For the same compound, the mortality at 39 ppm (large milkweed bug [6]) was 100%, the mortality at 156 ppm (large milkweed bug [6]) was 100% and the mortality at 1250 ppm (large milkweed bug [6]) was 100%. The “% Knockdown” value [7] was 0% and the mortality at 0.001 mg [7] was 38%.

With `CC(C)OP(=O)(OC(C)C)N(C)SN(C)C(=O)Oc1cccc2c1OC(C)(C)C2` [6(c), 2,3-Dihydro-2,2-dimethyl-7-benzofuranyl [(N-diisopropoxyphosphinyl) (N-methyl)aminosulfenyl][methyl]carbamate] the mortality at 39 ppm (pea aphid [1]) was 0%, the mortality at 156 ppm (pea aphid [1]) was 0% and the mortality at 1250 ppm (pea aphid [1]) was 5%. It also gave a mortality at 39 ppm (plum curculio) of 0%, a mortality at 156 ppm (plum curculio) of 45% and a mortality at 1250 ppm (plum curculio) of 100%. The mortality at 39 ppm (pea aphid [2]) was 100%, the mortality at 156 ppm (pea aphid [2]) was 100% and the mortality at 39 ppm (Mexican bean beetle) was 100%. The mortality at 156 ppm (Mexican bean beetle) was 100%, the mortality at 39 ppm (southern armyworm) was 28% and the mortality at 156 ppm (southern armyworm) was 100%. The mortality at 39 ppm (large milkweed bug [4]) was 5%, the mortality at 156 ppm (large milkweed bug [4]) was 25% and the mortality at 1250 ppm (large milkweed bug [4]) was 100%. It also gave a mortality at 39 ppm (pea aphid [5]) of 28%, a mortality at 156 ppm (pea aphid [5]) of 60% and a mortality at 1250 ppm (pea aphid [5]) of 100%. For the same compound, the mortality at 39 ppm (large milkweed bug [6]) was 95%, the mortality at 156 ppm (large milkweed bug [6]) was 100% and the mortality at 1250 ppm (large milkweed bug [6]) was 100%. For the same compound, the “% Knockdown” value [7] was 0% and the mortality at 0.001 mg [7] was 27%.

`CCCN(SN(C)C(=O)Oc1cccc2c1OC(C)(C)C2)P(=O)(Oc1ccccc1)Oc1ccccc1` [7(c)] showed a mortality at 39 ppm (pea aphid [1]) of 0%, a mortality at 156 ppm (pea aphid [1]) of 0% and a mortality at 1250 ppm (pea aphid [1]) of 0%. For the same compound, the mortality at 39 ppm (plum curculio) was 20%, the mortality at 156 ppm (plum curculio) was 50% and the mortality at 1250 ppm (plum curculio) was 65%. For the same compound, the mortality at 39 ppm (pea aphid [2]) was 0%, the mortality at 156 ppm (pea aphid [2]) was 0% and the mortality at 39 ppm (Mexican bean beetle) was 45%. For the same compound, the mortality at 156 ppm (Mexican bean beetle) was 100%, the mortality at 39 ppm (southern armyworm) was 0% and the mortality at 156 ppm (southern armyworm) was 0%. It also gave a mortality at 39 ppm (large milkweed bug [4]) of 26%, a mortality at 156 ppm (large milkweed bug [4]) of 21% and a mortality at 1250 ppm (large milkweed bug [4]) of 60%. It also gave a mortality at 39 ppm (pea aphid [5]) of 11%, a mortality at 156 ppm (pea aphid [5]) of 0% and a mortality at 1250 ppm (pea aphid [5]) of 0%. The mortality at 39 ppm (large milkweed bug [6]) was 5%, the mortality at 156 ppm (large milkweed bug [6]) was 70% and the mortality at 1250 ppm (large milkweed bug [6]) was 95%.

With `CCOP(=O)(OCC)N(CC)SN(C)C(=O)Oc1cccc2c1OC(C)(C)C2` [8(c), 2,3-Dihydro-2,2-dimethyl-7-benzofuranyl [(N-diethoxyphosphinyl) (N-ethyl)aminosulfenyl][methyl]carbamate] the mortality at 39 ppm (pea aphid [1]) was 0%, the mortality at 156 ppm (pea aphid [1]) was 0% and the mortality at 1250 ppm (pea aphid [1]) was 0%. The mortality at 39 ppm (plum curculio) was 0%, the mortality at 156 ppm (plum curculio) was 45% and the mortality at 1250 ppm (plum curculio) was 100%. For the same compound, the mortality at 39 ppm (pea aphid [2]) was 0%, the mortality at 156 ppm (pea aphid [2]) was 100% and the mortality at 39 ppm (Mexican bean beetle) was 67%. For the same compound, the mortality at 156 ppm (Mexican bean beetle) was 100%, the mortality at 39 ppm (southern armyworm) was 20% and the mortality at 156 ppm (southern armyworm) was 57%. The mortality at 39 ppm (large milkweed bug [4]) was 95%, the mortality at 156 ppm (large milkweed bug [4]) was 100% and the mortality at 1250 ppm (large milkweed bug [4]) was 100%. The mortality at 39 ppm (pea aphid [5]) was 0%, the mortality at 156 ppm (pea aphid [5]) was 83% and the mortality at 1250 ppm (pea aphid [5]) was 100%. It also gave a mortality at 39 ppm (large milkweed bug [6]) of 100%, a mortality at 156 ppm (large milkweed bug [6]) of 100% and a mortality at 1250 ppm (large milkweed bug [6]) of 100%. For the same compound, the “% Knockdown” value [7] was 0% and the mortality at 0.001 mg [7] was 33%.
